Data published in US4910225A, “Locally administrable therapeutic composition for inflammatory disease” (Senju Pharmaceutical Co., Ltd., priority 1988, dated 1990).

Tests used:
[1] = system: carrageenin edema in rats; assay: Carrageenin edema of the conjunctiva in rats; assay type: in vivo; conditions: 4 hours after carrageenin; for Weight of Edema: mean ± SE for 10 eyes
Procedure: 1. Sodium 3-(4-bromobenzoyl)-2-aminophenyl-acetate (hereinafter referred to as Compound [I])
2. Sodium 3-(4-chlorobenzoyl)-2-aminophenyl-acetate (hereinafter referred to as Compound [II])
3. Sodium 3-benzoyl-2-aminophenylacetate (hereinafter referred to as Compound [III])
Using female Wister rates weighing 100 g in groups of 5 animals or 10 eyes, 0.05 ml of 1% carrageenin (dissolved in physiological saline at 50° C.) as a phlogogen was injected beneath the conjuctiva of both eyes to induce edema. Physiological saline, as a control, and test drugs were respectively instilled into both eyes 40 and 20 minutes before and immediately after the injection of carrageenin, in the amount of 2.5 μl per dose. Four hours after the phlogogen treatment, each animal was sacrificed by cervical dislocation and in accordance with the method of Maistrello et al.^(2), the scalp was peeled off toward the eyelid and the edematous portion together with the skin was removed along the lid margin and weighed.
^(2) Maistrello et al.: Quantitative Effect of Topically Applied Anti-inflammatory Agents on External Ocular Inflammation in Rats: Journal of Pharmaceutical Science, volume 62, pp. 1455-60(1973).

[2] = system: protein increase after paracentesis; assay: Protein increase in aqueous humor after paracentesis; assay type: in vivo, albino rabbits; conditions: content 0.5%
Procedure: (§1) The solutions of the following formulas were used.
(§2) Totally 28 male albino rabbits (4 rabbits×7 groups) with a body weight of about 2 kg werr used. They had been confirmed, before the experiment, to have mydriatic response to 1% atropine for at least 4 hours.
(§3) 50 μl each of 1% atropine solution was instilled into both eyes of the animals one hour before the 1st paracenthesis, in which approx. 0.2 ml/eye of aqueous humor (primary aqueous humor) was collected. Topical application of 50 μl each of the test drug solutions was conducted 30 min before the paracenthesis. Pupil diameter of each eye was measured with a slide caliper immediately before and 10 min after the paracenthesis. The 2nd paracenthesis was conducted 90 min after the 1st one, in which approx. 0.2 ml/eye of aqueous humor (secondary aqueous humor) was collected.

[3] = system: atropine-resistant miosis; assay: Atropine-resistant miosis after paracentesis; assay type: in vivo, albino rabbits
Procedure: as §1, §2, §3

[4] = system: cyclooxgenase; conditions: cited from earlier work

Row | SMILES | Degree of inhibition (carrageenin edema) ([1]; 1.0%) [%] | Weight of Edema ([1]; 1.0%) [mg] | Degree of inhibition (carrageenin edema) ([1]; 5.0%) [%] | Weight of Edema ([1]; 5.0%) [mg] | Degree of inhibition (carrageenin edema) ([1]; 0.5%) [%] | Weight of Edema ([1]; 0.5%) [mg] | Inhibition (protein increase) [2] [%] | Inhibitory activity on miosis after paracentesis ([3]; Compound [I] 0.0001-0.1%, indomethacin as high as 0.5%) | Inhibition (miosis) ([3]; content 0.5%) [%] | Miosis ([3]; content 0.5%, 10 min after paracentesis) [%] | Cyclooxygenase inhibitory activity [4]
1 | Nc1c(CC(=O)[O-])cccc1C(=O)c1ccccc1.[Na+] [Compound [III], Sodium 3-benzoyl-2-aminophenylacetate] | 41.4 | 30.98 ± 3.194 | 37.9 | 32.80 ± 2.409 |  |  |  |  |  |  | 
2 | Nc1c(CC(=O)[O-])cccc1C(=O)c1ccc(Cl)cc1.[Na+] [Compound [II], Sodium 3-(4-chlorobenzoyl)-2-aminophenyl-acetate] | 34.4 | 39.02 ± 3.057 |  |  | 36.9 | 37.52 ± 2.423 |  |  |  |  | 
3 | COc1ccc2c(c1)c(CC(=O)O)c(C)n2C(=O)c1ccc(Cl)cc1 [Indomethacin, reference compound] |  |  |  |  |  |  | 69.7 | little effect was observed | 6.0 ± 21.4 | 16.4 ± 3.86 | strong cyclooxgenase inhibitory activity
